Test results reported in US9119857B2, “Small molecule activators of HsIV protease for development of novel antimicrobials” (priority 2013, dated 2015).

Molecular target: T1, E. coli HslV peptidase (Escherichia coli, UniProt P0A7B8)
T1 construct: His tag (inferred from Ni-chelating purification and the pET20B+ vector); made in house; host or cells: E. coli BL21 (DE3), pET20B+ vector
Experiment: biochemical
Conditions: recombinant E. coli HslV; substrate Z-Gly-Gly-Leu-AMC; in the absence of HslU; ED50 = concentration giving half maximal reaction velocity, from Vi/Vo plots; read-out: E. coli HslV activation (ED50 in μM)
Experimental: ED50 values were calculated from the plots of Vi/Vo versus compound concentration in which Vi and Vo were the velocities in the presence and absence of the compound^20.
The HslV activation assays were carried out with recombinant E. coli HslV and HslU. Recombinant HslV and HslU were expressed in E. coli BL21 (DE3) cells containing pET20B+ vector. Purification of both proteins was carried out using Ni-chelating and ion-exchange chromatography as reported elsewhere^4.
Plots of HslV peptidase activity as a function of compound concentrations were constructed (FIG. 4).

T1 sequence (P0A7B8 2-176): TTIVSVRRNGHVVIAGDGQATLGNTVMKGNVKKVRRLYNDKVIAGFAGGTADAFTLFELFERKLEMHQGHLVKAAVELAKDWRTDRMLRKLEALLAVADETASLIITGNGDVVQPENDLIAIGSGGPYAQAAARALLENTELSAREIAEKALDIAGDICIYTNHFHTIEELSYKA

Row | SMILES | EC50 [µM]
1 | O=C(N/N=C/c1cc(=O)c2ccccc2o1)c1ccccc1 [Compound 2, N″-[(1E)-(4-oxo-4H-chromen-2-yl)methylidene]benzohydrazide] | 1.3 ± 0.4
2 | O=c1c2ccccc2nc(-c2ccc([N+](=O)[O-])cc2)n1/N=C/c1c(O)ccc2ccccc12 [Compound 1, 3-[(E)-[(2-hydroxynaphthalen-1-yl)methylidene]amino]-2-(4-nitrophenyl)-3,4-dihydroquinazolin-4-one] | 0.9 ± 0.25
